Laboratory results reported in PMC3150642 (Journal of medicinal chemistry, 2011).

Tests used:
[1] = biological target: T1, Human platelet 12-lipoxygenase (12-LOX) (Homo sapiens, UniProt P18054); test: Lipoxygenase UV-Vis-based manual assay, 12-LOX; type: biochemical; details: Triton X-100 from 0.005% to 0.02%
T1 sequence (P18054 1-663): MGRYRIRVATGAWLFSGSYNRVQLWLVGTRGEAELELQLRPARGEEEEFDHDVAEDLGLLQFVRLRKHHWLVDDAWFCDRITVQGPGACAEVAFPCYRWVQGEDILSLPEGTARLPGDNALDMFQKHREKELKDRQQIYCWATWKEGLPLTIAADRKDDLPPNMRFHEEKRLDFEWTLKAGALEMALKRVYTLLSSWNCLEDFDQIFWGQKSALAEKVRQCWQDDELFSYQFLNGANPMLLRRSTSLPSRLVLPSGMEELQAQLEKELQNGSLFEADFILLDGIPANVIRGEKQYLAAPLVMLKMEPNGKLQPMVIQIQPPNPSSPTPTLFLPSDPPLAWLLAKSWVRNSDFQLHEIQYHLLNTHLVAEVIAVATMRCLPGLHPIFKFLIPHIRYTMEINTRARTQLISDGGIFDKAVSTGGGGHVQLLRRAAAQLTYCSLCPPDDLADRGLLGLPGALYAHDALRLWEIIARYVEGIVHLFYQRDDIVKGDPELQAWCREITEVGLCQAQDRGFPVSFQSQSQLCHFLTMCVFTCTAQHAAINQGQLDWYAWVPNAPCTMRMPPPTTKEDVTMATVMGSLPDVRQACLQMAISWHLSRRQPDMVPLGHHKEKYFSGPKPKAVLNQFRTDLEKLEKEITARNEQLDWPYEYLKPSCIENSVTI

DPPH Antioxidant Test = details: 5 μM test reagent, 500 μM DPPH
12-LOX in platelets = biological target: T2, 12-LOX in platelets (Homo sapiens, UniProt P18054); details: 100 μM inhibitor, three separate experiments
T2 sequence (P18054 1-663): T1 sequence (P18054 1-663)

[2] = biological target: T3, 12-LOX in primary human islets (Homo sapiens, UniProt P18054); test: Inhibition of 12-HETE Production in Human Donor Islets; type: cell-based; details: 10 μM, islets of two type 2 diabetic donors, AA + A23187
T3 sequence (P18054 1-663): T1 sequence (P18054 1-663)

change in IC50 with increasing Triton X-100 (aggregation test) [1]	inhibition of PAR1-AP-mediated 12-HETE production (12-LOX in platelets)	inhibition of stimulated 12-HETE production [2] [%]	Structure (SMILES)	reduction of DPPH (DPPH Antioxidant Test)
negligible changes in the IC50			CC(=O)NC(c1cccs1)c1cc(Cl)c2cccnc2c1O (centres unmarked) [Compound 3, N-((5-chloro-8-hydroxyquinolin-7-yl)(thiophen-2-yl)methyl)acetamide]	
			CC(Cc1ccc(O)c(O)c1)C(C)Cc1ccc(O)c(O)c1 (centres unmarked) [NDGA, Nordihydroguaiaretic acid, reference compound]	Stoichiometric reduction of DPPH
	significant inhibition	74	CCC(=O)NC(c1cccs1)c1cc([N+](=O)[O-])c2cccnc2c1O (centres unmarked) [Compound 1, N-((8-hydroxy-5-nitroquinolin-7-yl)(thiophen-2-yl)methyl)propionamide]	no reduction of DPPH was observed
